Source: patent US20120234256A1, “[…] DEVICE” (priority 2009, published 2012)

Tests used:
[1] = tested on: persistent and neuropathic pain; settings: animal studies; cited from earlier work
human neuropathic pain = settings: in the clinic; cited from earlier work
[2] = tested on: rats with formalin injection into one hindpaw; assay: Mechanical conflict device (MCD) test, inflammatory pain from formalin injection into one hindpaw; format: in vivo, rat; settings: formalin 0.2%, s.c. into one hindpaw, morphine 2.5 mg/kg i.p.
Description: (§1) The mechanical conflict device can be used in various methods. With reference now to FIGS. 3-7, the MCD 10 of the present technology can be used to measure the response of a laboratory animal 17, such as a rat, to noxious mechanical stimuli. In this test, exit or escape from an aversive environment to a preferred environment is deterred by a noxious mechanical stimulus represented by the pins 60 on a raised pin platform 80, as shown in FIG. 6. In an initial MCD 10 training period, the pins 60 are lowered below the alley floor 50 and the laboratory animal 17 is placed into the holding compartment 20. […] The holding compartment 20 and the alley compartment 30 can be illuminated with normal room lighting. In some embodiments, the holding compartment 20 and/or the alley compartment 30 are supplemented by a light source 220, for example, a high-intensity, white-light LED array positioned above the alley compartment 30, as shown in FIGS. 3-6. At that time, panel walls 110 and 120 can be raised to allow the laboratory animal 17 to learn that it can exit from the mildly aversive stimuli (the light 220) in the holding compartment 20 and alley compartment 30 and move across the floor 50, passing into the more comfortable compensatory compartment 40 where it is generally dim and provides the laboratory animal 17 with a generally more rewarding area. […]

CCI rats = assay: Mechanical conflict device (MCD) test, neuropathic pain from chronic constriction injury (CCI) of the left sciatic nerve; format: in vivo, rat; settings: pregabalin 10 and 30 mg/kg, i.p.
Description: as §1

## COc1ccccc1CN(C[C@@H](Cc1c[nH]c2ccccc12)NC(=O)CN1CCC(N2CCCCC2)CC1)C(C)=O [LY 303870]
[1]
  Relief of persistent and neuropathic pain: did relieve persistent and neuropathic pain
Human neuropathic pain
  Analgesia against human neuropathic pain: failed

## CN1CC[C@]23c4c5ccc(O)c4O[C@H]2[C@@H](O)C=C[C@H]3[C@H]1C5 [morphine]
[2]; FIG. 14
  Increased latency to exit produced by formalin injection: not reduced
[2]; FIG. 15
  Increased time spent on the stimulus array produced by formalin injection: attenuated

## CC(C)C[C@H](CN)CC(=O)O [pregabalin]
CCI rats; FIG. 12
  Latency to exit (light chamber): modulated
CCI rats; FIG. 13
  Time spent on the stimulus array: not modulated
